# Reference: patent US11634442B2, “Methods for the purification of L-glufosinate” (BASF SE, priority 2017, dated 2023)
# Experiment: Solid form stability on storage over desiccant (XRPD, ion chromatography)
# Protocol: X-ray Power Diffraction (XRPD), Reflection Mode: XRPD patterns were collected with a PANalytical X'Pert PRO MPD diffractometer using an incident beam of Cu Kα radiation produced using a long, fine-focus source and a nickel filter. The diffractometer was configured using the symmetric Bragg-Brentano geometry. […] A specimen of the sample was prepared as a thin, circular layer centered on a silicon zero-background substrate. Antiscatter slits (SS) were used to minimize the background generated by air. Soller slits for the incident and diffracted beams were used to minimize broadening from axial divergence. Diffraction patterns were collected using a scanning position-sensitive detector (X'Celerator) located 240 mm from the sample and Data Collector software v. 2.2b.
# XRPD, Transmission Mode: XRPD patterns were collected with a PANalytical X'Pert PRO MPD diffractometer using an incident beam of Cu radiation produced using an Optix long, fine-focus source. An elliptically graded multilayer mirror was used to focus Cu Kα X-rays through the specimen and onto the detector. […] A specimen of the sample was sandwiched between 3-μm-thick films and analyzed in transmission geometry. A beam-stop, short antiscatter extension, antiscatter knife edge were used to minimize the background generated by air. Soller slits for the incident and diffracted beams were used to minimize broadening from axial divergence. Diffraction patterns were collected using a scanning position-sensitive detector (X'Celerator) located 240 mm from the specimen and Data Collector software v. 2.2b.
# Form B was characterized by ^1H NMR, IC, DSC, and TGA.
smiles,measurement,setting,value
CP(=O)(O)CC[C@H](N)C(=O)O.N [Form A],form change by XRPD upon storage over desiccant,"Form A from 93/7 v/v methanol/water slurry, storage time not given",converted to Form B with minor additional peaks
same,overall assessment of form stability,prone to conversion to Form B,metastable
CP(=O)(O)CC[C@H](N)C(=O)O [Form B],change in XRPD pattern upon storage over desiccant for 47 days,47 days over desiccant,No significant changes
CP(=O)(O)CC[C@H](N)C(=O)O.N [Form C],ammonium content by IC after storage under desiccant for 36 days,"sample of Form C with minor Form A, 6.3 wt % initially",3.2 wt %
same,form change by XRPD after storage under desiccant for 36 days,"sample of Form C with minor Form A, 36 days under desiccant",conversion to Form B with minor Form A and a few minor additional peaks
CP(=O)(O)CC[C@H](N)C(=O)O [Form D],change in XRPD pattern upon storage over desiccant,"sample of Form D+minor Form A, storage time not given",No significant changes
